Here are results for one molecule from patent US20250002450A1, “CATIONIC STEROID COMPOUNDS, METHOD OF OBTAINING THEREOF, FORMULATIONS COMPRISING THEREOF AND THEIR USES” (UNIVERSIDADE DO PORTO, priority 2021, published 2025).

What all share (assay type): cell-based, Candida albicans
The test system of assay [1] is C. albicans ATCC 10231. Nature of the assay: Ergosterol binding assay. The protocol: Ceragenins have been described to interact with the lipophilic environment of microbial membranes and ergosterol is the major sterol component of fungal plasma membrane, and the target of several antifungals. As such, in order to evaluate the ability of compound 1 to bind to membrane ergosterol of C. albicans ATCC 10231, MICs were determined in the absence and presence of exogenous ergosterol ([FIG. 10]). If the tested compound has the ability to perturb membrane integrity by binding to ergosterol, is expected that, in the presence of exogenous ergosterol, the compound binds to it, decreasing the amount of compound available to bind to membrane ergosterol, therefore increasing the MIC. Amphotericin B was used as a positive control for this assay and MICs obtained were 8 times higher in the presence of 400 μg/mL of exogenous ergosterol than in its absence (2 to 16 μg/mL, data not shown). […] The ability of compound 1 to bind to membrane ergosterol of C. albicans ATCC 10231, was evaluated by the ergosterol binding assay, as previously described. Briefly, MICs of compound 1 were determined by broth microdilution, as described above, in the absence and presence of ergosterol (Sigma-Aldrich, St. Louis, MO, USA) at a final concentration of 400 μg/mL. Ergosterol was prepared immediately before being added to the plates, by maceration and dissolution in DMSO. The formed emulsion was then homogenized, heated to increase solubility, and diluted in RPMI. Amphotericin B was used as positive control. Plates were incubated at 35° C. for 48 h and MICs were determined as described above. At least two independent assays were performed.

The test system of assay [2] is C. albicans ATCC 10231. Nature of the assay: Mitochondrial dehydrogenases activity, MTT reduction assay. The conditions noted are these: 8 μg/mL, 2 h. The protocol: In order to determine whether compound 1 could also affect mitochondrial function, MTT reduction assay was performed. In this assay, tetrazolium salts are reduced to purple formazan derivatives by mitochondrial dehydrogenases, which can be measured spectrophotometrically and reported to mitochondrial activity and, indirectly, to cell viability. In this assay, cells were exposed to the test compounds for 2 h ([FIG. 11]). […] An increase in reactive oxygen species (ROS) has been linked to azoles activity: even though their primary mode of action is the inhibition of ergosterol synthesis, they also induce accumulation of ROS, which enhances their antifungal activity and translates into an increase in mitochondrial activity at inhibitory concentrations. […] Mitochondrial dehydrogenase activity was evaluated by the MTT assay, as previously described, with some modifications. Cell suspensions of C. albicans ATCC 10231 were prepared in the same manner as described above and, after overnight incubation at 36° C., were centrifuged at 3500 rpm for 15 min, the supernatant was removed, and the cells were carefully resuspended in 2 mL of RPMI. Test conditions and controls were the same as described above, but the time of exposure to the test compounds was 2 h. After the exposure time, cell suspensions were centrifuged at 3500 rpm for 10 min, the supernatant was removed, and 500 μL of MTT solution (0.5 mg/mL in RPMI, at 35° C.) (Thiazolyl Blue Tetrazolium Bromide, Alfa Aesar, Ward Hill, MA, USA) were added. After a 1 h incubation at 35° C., the insoluble formazan product resulting from the conversion of MTT by mitochondrial dehydrogenases of metabolically active cells was solubilized with 300 μL of DMSO. 100 μL of each sample were transferred in duplicate to a microtiter plate and the extent of the reduction of MTT to formazan was quantified by measuring the absorbance at 570 nm. Three independent assays were performed in duplicate, and the results are expressed as percentage of MTT reduction, using the untreated cells as control.

For assay [3], the system named is C. albicans ATCC 10231. Nature of the assay: Propidium iodide influx assay (SYTO 9/PI). The conditions noted are these: 8 μg/mL, 5 min.
Procedure: Influx of PI in C. albicans ATCC 10231 treated with compound 1 was evaluated using a commercial kit, which includes fluorescent nucleic acid stains SYTO™ 9 and PI, and measurements were conducted in a fluorescence microplate reader. […] The ability of PI to penetrate cells with damaged membranes makes it suitable for studying the effect of drugs on cell membranes.
In order to assess membrane integrity by the PI influx assay, a commercial kit was used (LIVE/DEAD® BacLight™ Bacterial Viability Kit, for microscopy & quantitative assays, Invitrogen by Thermo Fisher Scientific, Waltham, MA, USA), which includes fluorescent nucleic acid stains SYTO® 9 and PI. Briefly, C. albicans ATCC 10231 colonies from overnight cultures in SDA were suspended in sterile saline and adjusted to 0.5 McFarland. This suspension was then diluted in RPMI (1:50 followed by 1:20) to achieve a final concentration of 0.5-2.5×10^3 CFU/mL and the tubes were incubated overnight at 36° C. in a water bath with shaking. The following day, the cell suspensions were centrifuged at 3500 rpm for 15 min, the supernatant was removed, and the cells were carefully resuspended in 2 mL of 0.85% NaCl (VWR International, Radnor, PA, USA) prepared in ultrapure water. An aliquot of this suspension was then added to each tube of 0.85% NaCl alone (control) or 0.85% NaCl plus an appropriate amount of test compound, in a 1:10 proportion. […] Fluorescence intensity of the stained yeast suspensions was obtained in a microplate reader (Synergy HT, BioTek Instruments) by two consecutive measurements: with excitation wavelength 485 nm and emission wavelength 528 nm (SYTO® 9) and with excitation wavelength 485 nm and emission wavelength 590 nm (PI). Data were analyzed by subtracting background fluorescence from each sample, dividing fluorescence intensity of SYTO® 9 by fluorescence intensity of PI, and are presented as a percentage of control. […]

In brackets after ≈: the same amount, converted by molar mass.

Turning to `C[C@@H]1[C@H](O)[C@@H](C)/C=C/C=C/C=C/C=C/C=C/C=C/C=C/[C@H](O[C@@H]2O[C@H](C)[C@@H](O)[C@H](N)[C@@H]2O)C[C@@H]2O[C@](O)(C[C@@H](O)C[C@@H](O)[C@H](O)CC[C@@H](O)C[C@@H](O)CC(=O)O[C@H]1C)C[C@H](O)[C@H]2C(=O)O` [Amphotericin B], the “increase of MIC in the presence of exogenous ergosterol” value in assay [1] (400 μg/mL ergosterol vs absence) is 8 times. For the same molecule, the MIC (commonly the least concentration at which growth counts as inhibited) in assay [1] (absence of exogenous ergosterol) turned out to be 2 µg/mL (≈ 2.16 µM); in assay [1] (presence of 400 μg/mL of exogenous ergosterol), 16 µg/mL. Moreover, the “mitochondrial activity (MTT reduction) vs untreated control” value in assay [2] was “significantly reduced”. Moreover, the “reduction of SYTO 9/PI ratio vs untreated control” value in assay [3] is “statistically significant”.
